Data taken from patent US11571378B2, “Skin care composition and method of using the same” (The Procter & Gamble Company, priority 2021, dated 2023).
No end group written: not given here.

Key:
PPARA [SEQ ID NO: 2] = experiment: Gene Modulation Assay, PPARA expression (qPCR); assay type: cell-based
Experimental: (§1) This method provides a way to measure the ability of a compound or material to modulate the expression of a target gene such as PPARA [SEQ ID NO: 2] or MSMO1 [SEQ ID NO: 3]. • Cells: tert keratinocytes (tKC)
(§2) BJ Fibroblasts • Plating: Cells are plated the day before treatment. • For tert keratinocytes: 100,000 cells/well in 2 ml volume of medium/well for 12-well plates (e.g., Collagen I coated plates, Corning cat #356500), or 50,000 cells/well in 1 ml volume of medium/well for 24-well plates. • For BJ fibroblasts: 88,000 cells/well in 2 ml volume of medium/well for 12-well plates (e.g., Corning cat #3512), or 44,000 cells/well in 1 ml volume of medium/well for 24-well plates. • Medium: For tert keratinocytes: EpiLife (e.g., Thermo Fisher Scientific cat #MEPI500CA+HKGS (e.g., Thermo Fisher Scientific cat #S-001-5). • For BJ Fibroblasts: EMEM (e.g., ATCC cat #30-2003)+10% FBS (e.g., HyClone cat #SH30071.02).
(§3) Treatments are made in media and aliquoted to dose plates. When it is time to treat cells, all plates of cells are removed from the incubator at the same time. Working with one plate at a time, media is removed and treatment is added, as follows: • Media is decanted from plate of cells. • Inverted plate is blotted briefly on paper towels. • Lid is put back onto plate and plate is moved into biosafety cabinet. • Treatments are transferred from dose plate to plate of cells, one column at a time, using a multichannel pipette. Once all plates have been treated, they are moved into incubator at 37° C., with 5% CO2 and 90% humidity. About 15-30 min before the end of the treatment period, cells from representative wells of each treatment are observed via microscope, then plates are returned to the incubator. When treatment time is complete, all plates are removed from incubator. Media is decanted from each plate, and plates are blotted on paper towels. 350 ul Qiagen Buffer RLT is added to each well to lyse cells, and lysates are transferred to 2 ml Eppendorf tubes and stored at −20° C. until ready for genomics.
(§4) Cell lysates are thawed at 4° C. and then isolated using the Biomek FxP and the RNAdvance Tissue Isolation kit (Beckman Coulter, p/n A32646). The resulting RNA is quantified using the Nandrop 8000 (Nanodrop, ND-8000). cDNA is generated using 500 ng of Total RNA and Applied Biosystems High Capacity cDNA with Reverse Transcription kit (Applied Biosystems p/n 4368814). cDNA, assays, and dilutions of PrimeTime GeneExpression MasterMix (IDT, p/n ? ) are plated onto a Wafergen MyDesign SmartChip (TakaraBio, p/n 640036) using the Wafergen Nanodispenser. The chip is then loaded into the SmartChip cycler and qPCR performed using the following PCR conditions:
(§5) Hold stage: 50° C. for 2 minutes (warm up), then 95° C. for 10 minutes.
(§6) PCR stage (40 cycles): 95° C. for 15 seconds, then 60° C. for 1 minute. Export data in .txt file format for analysis.
(§7) Test compositions and control compositions were prepared as described above in the Gene Modulation Assay and tested accordingly. The pal-KT used in this example is PALESTRINA brand pal-KT from Sederma (France), and the ac-PPYL is SYNIORAGE brand tetrapeptide from BASF Care Creations (New Jersey). P+A refers to the combination of pal-KT (P), and ac-PPYL (A) [SEQ ID NO: 1].
(§8) Synergy Factor is calculated as: […]
(§9) A synergy factor greater than 1.00 with p-value ≤0.05 indicates a statistically significant synergistic effect. Preferred synergy factors are 1.3 or greater.
(§10) In this test, the amino acids from pal-KT were rearranged to form a new dipeptide, pal-TK. Test compositions and control compositions were prepared as described above in the Gene Modulation Assay and tested accordingly. Fold change factor is calculated as.
(§11) [formula] A fold change factor of greater than 1 is desired, and a fold change factor of 1.3 or greater is preferred.

MSMO1 [SEQ ID NO: 3] = experiment: Gene Modulation Assay, MSMO1 expression (qPCR); assay type: cell-based
Experimental: as §1, §2, §3, §4, §5, §6, §7, §8, §9, §10, §11

[1] = pal-KT + ac-PPYL relative to pal-TK + ac-PPYL, all peptides at 1 ppm

Substance | Fold change vs. control, Pal-KT (PPARA [SEQ ID NO: 2]; Pal-KT 1 ppm alone) | Fold change vs. control, Pal-KT (PPARA [SEQ ID NO: 2]; Pal-KT 7.5 ppm alone) | Fold change vs. control, Pal-KT (PPARA [SEQ ID NO: 2]; Pal-KT 15 ppm alone) | Fold change factor (PPARA [SEQ ID NO: 2]; [1]) | Fold change vs. control, Pal-KT (MSMO1 [SEQ ID NO: 3]; Pal-KT 1 ppm alone) | Fold change vs. control, Pal-KT (MSMO1 [SEQ ID NO: 3]; Pal-KT 7.5 ppm alone) | Fold change vs. control, Pal-KT (MSMO1 [SEQ ID NO: 3]; Pal-KT 15 ppm alone) | Fold change factor (MSMO1 [SEQ ID NO: 3]; [1]) | Fold change vs. control, Ac-PPYL (PPARA [SEQ ID NO: 2]; Ac-PPYL 0.0135 ppm alone) | Fold change vs. control, Ac-PPYL (PPARA [SEQ ID NO: 2]; Ac-PPYL 1 ppm alone) | Fold change vs. control, Ac-PPYL (PPARA [SEQ ID NO: 2]; Ac-PPYL 13.5 ppm alone) | Fold change vs. control, Ac-PPYL (PPARA [SEQ ID NO: 2]; Ac-PPYL 40.5 ppm alone) | Fold change vs. control, Ac-PPYL (MSMO1 [SEQ ID NO: 3]; Ac-PPYL 0.0135 ppm alone) | Fold change vs. control, Ac-PPYL (MSMO1 [SEQ ID NO: 3]; Ac-PPYL 1 ppm alone) | Fold change vs. control, Ac-PPYL (MSMO1 [SEQ ID NO: 3]; Ac-PPYL 13.5 ppm alone) | Fold change vs. control, Ac-PPYL (MSMO1 [SEQ ID NO: 3]; Ac-PPYL 40.5 ppm alone)
palmitoyl dipeptide-7 [Pal-KT] | 1.26 | 1.43 | 1.59 | greater than 1.3 | 4.32 | 4.69 | 5.63 | greater than 1.3 | – | – | – | – | – | – | – | –
acetyl tetrapeptide-11 (Ac-PPYL) [acetylated tetrapeptide ac-PPYL, available as SYNIORAGE from BASF Care Creations] | – | – | – | – | – | – | – | – | 0.70 | 0.69 | 0.67 | 0.71 | 0.377 | 0.496 | 0.510 | 0.560
